Experimental findings from PMC5360270 (Journal of medicinal chemistry, 2016) are described below.

pIC50: −log10 of the molar value.

In general, pIC50 refers to the negative decadic logarithm of the IC50, by convention in mol/L. A low value points to a large IC50.

Type in all cases: cell-based
The test system of one test is HIV-1DRV^RP20. Description: Antiviral p24 assay in MT-4 cells, multi-drug resistant variant HIV-1DRVRP20. Conditions: 50 TCID50 HIV-1DRV^RP20 (multi-drug resistant).
A further test relates to HIV-1B. Put plainly: Antiviral p24 assay in MT-4 cells, multi-drug resistant variant HIV-1B. Conditions: 50 TCID50 HIV-1B (multi-drug resistant).
A further test deals with HIV-1NL4-3. Description: Antiviral p24 assay in MT-4 cells, wild-type HIV-1NL4-3. Conditions: 50 TCID50 wild-type HIV-1NL4-3, p24 assay.
Another test relates to HIV-1LAI. Description: Antiviral assay in MT-2 cells exposed to HIV-1LAI, MTT assay. Conditions: Human immunodeficiency virus 1, MT2.
In the next test the test system is HIV-1C. Description: Antiviral p24 assay in MT-4 cells, multi-drug resistant variant HIV-1C. The conditions noted are these: 50 TCID50 HIV-1C (multi-drug resistant).

As for `COc1ccc(S(=O)(=O)N(CC(C)C)C[C@@H](O)[C@H](CC23CC4CC(CC(C4)C2)C3)NC(=O)O[C@H]2CO[C@H]3OCC[C@H]32)cc1` [15d, (3R,3aS,6aR)-Hexahydrofuro[2,3-b]furan-3-yl ((2S,3R)-1-((1s,3R)-adamantan-1-yl)-3-hydroxy-4-((N-isobutyl-4-methoxyphenyl)sulfonamido)butan-2-yl)carbamate], the results for the “Mean IC50 ± SD” value in the test with HIV-1DRV^RP20, in the test on HIV-1B and with HIV-1NL4-3 were “did not show any appreciable antiviral activity”, “did not show any appreciable antiviral activity” and “low nanomolar”, respectively.

As to `CC(C)CN(C[C@@H](O)[C@H](Cc1ccccc1)NC(=O)O[C@H]1CO[C@H]2OCC[C@H]21)S(=O)(=O)c1ccc(N)cc1` [Darunavir, darunavir], the pIC50 in the test on HIV-1LAI is 8.52.

As for `COc1ccc(S(=O)(=O)N(CC(C)C)C[C@@H](O)[C@H](CC23CC4CC(CC(C4)C2)C3)NC(=O)O[C@H]2CCOC2)cc1` [15a, (S)-Tetrahydrofuran-3-yl ((2S,3R)-1-((1s,3R)-adamantan-1-yl)-3-hydroxy-4-((N-isobutyl-4-methoxyphenyl)sulfonamido)butan-2-yl)carbamate], the “Mean IC50 ± SD” value in the test with HIV-1DRV^RP20, in the test with HIV-1B and in the test on HIV-1C was “did not exhibit appreciable antiviral activity” in each case.
